From patent publication US9504755B2, “Multi-arm polymeric alkanoate conjugates” (Nektar Therapeutics, priority 2008, dated 2016)
Marks after values point to notes of the source that are not given here.

Legend:
[1] = Pharmacokinetics after IV infusion in Sprague-Dawley rats; assay type: in vivo, rat; conditions: Sprague-Dawley, rat, plasma, male rats, single IV dose 5 mg/kg
Method: The objective of this study was to assess the pharmacokinetics and excretion of docetaxel and 4-ARM-PEG20K-BA-docetaxel after intravenous infusion to rats.
Pharmacokinetics of 4-ARM-PEG20K-BA-docetaxel and docetaxel were evaluated in male rats (15 rats/dose level) dosed with 5, 10, and 15 mg/kg (30, 60, 90 mg/m^2) 4-ARM-PEG20K-BA-docetaxel or 5 mg/kg (30 mg/m^2) docetaxel. 4-ARM-PEG20K-BA-docetaxel and docetaxel were administered via a femoral vein catheter as 30-min intravenous infusions at 4 mL/kg. Blood samples (n=15 timepoints with n=5 samples/dose level/timepoint) were obtained by jugular venipuncture between pre-dose and 144 hours post-dose.

H460 tumors = assay: Anti-tumor activity in H460 non-small cell lung mouse xenograft model; assay type: in vivo
Method: (§1) H460, LS174T and LoVo tumors were established in female athymic nude mice. Groups of 10 mice received a total of three single doses of 4-ARM-PEG20K-BA-DOC or docetaxel administered every 7 days (q7d×3) at several doses up to a maximum tolerated dose (MTD). Control groups received no treatment after tumor implant. Animals were weighed daily for the first five days and twice weekly thereafter. Tumor volumes were measured twice weekly after the first drug injection.
(§2) Anti-tumor activity was measured as changes in tumor volume, time to reach endpoint, and complete or partial tumor regression.
(§3) Treatment outcome was evaluated by Tumor Growth Delay (TGD), which is defined as the increase in median time to endpoint in a treatment group compared to the control group. Here it is expressed as % TGD, as a percentage to the median time to endpoint of the control group.
(§4) A tumor whose volume was reduced to 50% or less for three consecutive measurements compared to its volume on Day 1 was considered to be in partial regression. Complete regression was defined as volume […] 13.5 mm^3 for three consecutive measurements.
(§5) Acceptable toxicity was defined as a group mean body weight (BW) loss of less than 20% during the study and not more than one treatment-related death among ten treated animals.

[2] = Population pharmacokinetic modeling of terminal disposition rate constant, dogs; assay type: in vivo; conditions: dog, in vivo
Description: To further evaluate the sustained plasma docetaxel terminal half-life, a population pharmacokinetic approach was employed.
While determining the pharmacokinetics of docetaxel after administration of docetaxel or 4-ARM-PEG20K-BA-docetaxel, it was observed that reliable values for the terminal disposition rate constant λz could not be obtained for the majority of animals secondary to fluctuation of plasma docetaxel concentrations between adjacent sampling times and/or the occurrence of incomplete concentration-time profiles due to concentrations being near or at the lower limit of quantification (1 ng/mL). In addition, in Example 14, rats were sampled in groups of 15 using alternating, overlapping sparse sampling schemes across groups to encompass the total duration of sampling. All of these factors contributed to the occurrence of sparse data within a given animal's terminal concentration-time profile.
To further investigate and compare docetaxel terminal disposition patterns between docetaxel and 4-ARM-PEG20K-BA-docetaxel, population pharmacokinetic methods were applied to data from rats (Example 14) and dogs (Example 15 and in one additional study). This allowed estimation of population λz values and corresponding half-life values for each treatment group in the presence of incomplete data within individual animals. Specifically, data from all animals within a treatment group and all treatment groups were fit with a nonlinear mixed effect pharmacokinetic model using the program Monolix. Plasma docetaxel concentrations following docetaxel or 4-ARM-PEG20K-BA-docetaxel administration, and plasma 4-ARM-PEG20K-BA-docetaxel concentrations following 4-ARM-PEG20K-BA-docetaxel administration were fit with a model specifying zero-order input of the dose over a defined infusion period and biexponential disposition (Monolix PK Model 26). Docetaxel concentration-time data after 4-ARM-PEG20K-BA-docetaxel were fit with a model having first order input, to reflect metabolism of 4-ARM-PEG20K-BA-docetaxel to the active docetaxel metabolite, and biexponential disposition (Monolix PK Model 31). The parameter of interest for this investigation was the population terminal disposition rate constant, λz to supplement the results described above.
Dogs in the additional study received 7 mg/kg doses of 4-ARM-PEG20K-BA-docetaxel on Days 1 and 22 with serial blood sampling after each dose for determination of plasma 4-ARM-PEG20K-BA-docetaxel and docetaxel concentrations.

LoVo tumors = assay: Anti-tumor activity in LoVo colorectal mouse xenograft model; assay type: in vivo
Method: as §1, §2, §3, §4, §5

[3] = 18.7 mg/kg (56.1 mg/m^2), q7d×3
[4] = 25 mg/kg (75 mg/m^2), q7d×3 (MTD of docetaxel)
[5] = 12.7 mg/kg (38.1 mg/m^2), q7d×3
[6] = 16.9 mg/kg (50.7 mg/m^2), q7d×3
[7] = 22.5 mg/kg (67.5 mg/m^2), q7d×3

Q: Which AUC(0-t) ([1]; read-out: AUClast, analyte docetaxel) does the source give for `CC(=O)O[C@@]12CO[C@@H]1C[C@H](O)[C@@]1(C)C(=O)[C@H](O)C3=C(C)[C@@H](OC(=O)[C@H](O)[C@@H](NC(=O)OC(C)(C)C)c4ccccc4)C[C@@](O)([C@@H](OC(=O)c4ccccc4)[C@H]21)C3(C)C` [Docetaxel, reference compound] here?
A: 1420 ng·h/mL

Q: And the Cmax ([1]; read-out: Cmax, analyte docetaxel)?
A: 682 ng/mL

Q: And the Tmax ([1]; read-out: Tmax, analyte docetaxel)?
A: 30 min

Q: And the “BW Loss (%)” value (H460 tumors; 10 mg/kg (30 mg/m^2), q7d×3)?
A: 0/0%

Q: What about the “No. Surviving/No. Treated Mice” value (H460 tumors; 10 mg/kg (30 mg/m^2), q7d×3) of the same molecule?
A: 10/10

Q: What about the “TGD (%)” value (H460 tumors; 10 mg/kg (30 mg/m^2), q7d×3) of the same molecule?
A: −2%

Q: And the “BW Loss (%)” value (H460 tumors; 14 mg/kg (42 mg/m^2), q7d×3)?
A: 4.1%

Q: What about the “Day of BW Nadir” value (H460 tumors; 14 mg/kg (42 mg/m^2), q7d×3) of the same molecule?
A: 19

Q: And the “No. Surviving/No. Treated Mice” value (H460 tumors; 14 mg/kg (42 mg/m^2), q7d×3)?
A: 10/10

Q: And the “TGD (%)” value (H460 tumors; 14 mg/kg (42 mg/m^2), q7d×3)?
A: 4%

Q: What about the “BW Loss (%)” value (H460 tumors; [3]) of the same molecule?
A: 9.7%

Q: And the “Day of BW Nadir” value (H460 tumors; [3])?
A: 22

Q: And the “No. Surviving/No. Treated Mice” value (H460 tumors; [3])?
A: 10/10

Q: What about the “TGD (%)” value (H460 tumors; [3]) of the same molecule?
A: 23%

Q: And the “Day of BW Nadir” value (H460 tumors; 25 mg/kg (75 mg/m^2), q7d×3)?
A: 26

Q: And the “No. Surviving/No. Treated Mice” value (H460 tumors; 25 mg/kg (75 mg/m^2), q7d×3)?
A: 10/10

Q: What about the “BW Loss (%)” value (H460 tumors; [4]) of the same molecule?
A: 15.5%

Q: And the “TGD (%)” value (H460 tumors; [4])?
A: 48%

Q: And the “TGD (%)” value (H460 tumors; 25 mg/kg (75 mg/m^2), q7d×3 (MTD of docetaxel), listed as docetaxel)?
A: 48%

Q: What about the “antitumor activity below MTD” value (H460 tumors; 4-ARM-PEG20K-BA-DOC at 19 mg/kg (58% of its MTD), docetaxel doses less than 25 mg/kg) of the same molecule?
A: did not

Q: What about the “t½λz, plasma docetaxel” value [2] of the same molecule?
A: 1500 min

Q: And the “BW Loss (%)” value (LoVo tumors; [5])?
A: 5.0%

Q: And the “Day of BW Nadir” value (LoVo tumors; [5])?
A: 24

Q: And the “No. Surviving/No. Treated Mice” value (LoVo tumors; [5])?
A: 10/10

Q: What about the “PR (partial regressions)” value (LoVo tumors; [5]) of the same molecule?
A: 0

Q: And the “TGD (%)” value (LoVo tumors; [5])?
A: 7%

Q: What about the “BW Loss (%)” value (LoVo tumors; [6]) of the same molecule?
A: 12.8%

Q: And the “Day of BW Nadir” value (LoVo tumors; [6])?
A: 21

Q: What about the “No. Surviving/No. Treated Mice” value (LoVo tumors; [6]) of the same molecule?
A: 10/10

Q: What about the “PR (partial regressions)” value (LoVo tumors; [6]) of the same molecule?
A: 0

Q: And the “TGD (%)” value (LoVo tumors; [6])?
A: 70** %

Q: What about the “BW Loss (%)” value (LoVo tumors; [7]) of the same molecule?
A: 14.6%

Q: And the “Day of BW Nadir” value (LoVo tumors; [7])?
A: 24

Q: And the “No. Surviving/No. Treated Mice” value (LoVo tumors; [7])?
A: 10/10

Q: And the “PR (partial regressions)” value (LoVo tumors; [7])?
A: 0

Q: What about the “TGD (%)” value (LoVo tumors; [7]) of the same molecule?
A: 32* %

Q: What about the “BW Loss (%)” value (LoVo tumors; 30 mg/kg (90 mg/m^2), q7d×3) of the same molecule?
A: 13.3%

Q: What about the “Day of BW Nadir” value (LoVo tumors; 30 mg/kg (90 mg/m^2), q7d×3) of the same molecule?
A: 21

Q: And the “No. Surviving/No. Treated Mice” value (LoVo tumors; 30 mg/kg (90 mg/m^2), q7d×3)?
A: 10/10

Q: What about the “PR (partial regressions)” value (LoVo tumors; 30 mg/kg (90 mg/m^2), q7d×3) of the same molecule?
A: 0

Q: What about the “TGD (%)” value (LoVo tumors; 30 mg/kg (90 mg/m^2), q7d×3 (MTD for both agents)) of the same molecule?
A: 64** %

Q: What about the “TGD (%)” value (LoVo tumors; 30 mg/kg (90 mg/m^2), q7d×3 (MTD for both agents), listed as docetaxel) of the same molecule?
A: 64%
